Source: patent US8580995B2, “Lysine-based prodrugs of aspartyl protease inhibitors and processes for their preparation” (priority 2005, dated 2013)

Experiment: Bioavailability: plasma concentration after single oral administration to rats
Type: in vivo, male Sprague-Dawley rats
Conditions: for AUC: 50 mg/Kg po, 3 rats; for Detection of the administered phosphate compound itself in the blood samples / Delivery of parent drug (PL-100, PL-337) by aqueous dosing compared to non-aqueous formulations of PL-100 and PL-337: 50 mg/kg po; for Detection of the administered phosphate compound itself in the blood samples: delivered as aqueous solutions, HPLC-MS of plasma; for Delivery of parent drug (PL-100, PL-337) by aqueous dosing compared to non-aqueous formulations of PL-100 and PL-337: rats
Procedure: To assess the extent of in vivo cleavage of the phosphate group from the putative compounds, PL-100, PL-462 (based on PL-100), PL-337 and PL-515 (based on PL-337) compounds were administered per os (po) (50 mg/kg) to male Sprague-Dawley rats and their plasma concentration measured at different time intervals post-administration. All test articles (PL-100, PL-462, PL-337 and PL-515) were prepared in different vehicle at the final concentration of 25 mg/mL. The vehicle composition is as follows: (1) 20% ethanol; 50% propylene glycol; 0.05% w/v Tween 20 and water (Mix); (2) PBS buffer (PBS). Test articles were administered to male Sprague-Dawley rats at a single oral dose of 50 mg/kg. Each article was tested in three rats. Blood samples (0.2-0.3 mL) were collected at the post-dose time of 10, 20, 40, 60, 120, 180 and 360 minutes. The harvested blood was centrifuged to isolate plasma. The resulting plasma was separated and stored at −70° C. Plasma samples together with standards and quality control samples were treated to precipitate proteins, then analyzed by HPLC-MS, for the presence of PL-462, PL-100, PL-515 and PL-337.

[1] = vehicle Mix (20% ethanol; 50% propylene glycol; 0.05% w/v Tween 20 and water)
[2] = vehicle PBS, parent drug (PL-100 or PL-337) detected in plasma after dosing the phosphate compound

Row | SMILES | AUC [1] [μg/hr*ml] | AUC [2] [μg/hr*ml] | Detection of the administered phosphate compound itself in the blood samples | Delivery of parent drug (PL-100, PL-337) by aqueous dosing compared to non-aqueous formulations of PL-100 and PL-337
1 | COC(=O)N[C@H](C(=O)NCCCC[C@@H](CO)N(CC(C)C)S(=O)(=O)c1ccc(N)cc1)C(c1ccccc1)c1ccccc1 [PL-100, (1S,5S)-(1-{5-[(4-amino-benzenesulfonyl)-isobutyl-amino]-6-hydroxy-hexylcarbamoyl}-2,2-diphenyl-ethyl)-carbamic acid methyl ester] | 0.675 ± 0.171 |  |  | 
2 | COC(=O)N[C@H](C(=O)NCCCC[C@@H](CO)N(CC(C)C)S(=O)(=O)c1ccc(N)c(F)c1)C(c1ccccc1)c1ccccc1 [PL-337, (1-{5-[(4-amino-3-fluoro-benzenesulfonyl)-isobutyl-amino]-6-hydroxy-hexylcarbamoyl}-2,2-diphenyl-ethyl)-carbamic acid methyl ester] | 1.180 ± 0.196 |  |  | 
3 | COC(=O)N[C@H](C(=O)NCCCC[C@@H](COP(=O)([O-])[O-])N(CC(C)C)S(=O)(=O)c1ccc(N)cc1)C(c1ccccc1)c1ccccc1.[Na+].[Na+] [PL-462, (1S,5S)-(1-{5-[(4-amino-benzenesulfonyl)-isobutyl-amino]-6-phosphonooxy-hexylcarbamoyl}-2,2-diphenyl-ethyl)-carbamic acid methyl ester sodium salt] |  | 0.816 ± 0.295 | None of the PL-462 and PL-515 compounds, delivered as aqueous solutions, are detected in the blood samples | equivalent to slightly superior delivery
4 | COC(=O)N[C@H](C(=O)NCCCC[C@@H](COP(=O)(O)O)N(CC(C)C)S(=O)(=O)c1ccc(N)c(F)c1)C(c1ccccc1)c1ccccc1 [PL-515, (1S,5S)-(1-{5-[(4-amino-3-fluoro-benzenesulfonyl)-isobutyl-amino]-6-phosphonooxy-hexylcarbamoyl}-2,2-diphenyl-ethyl)-carbamic acid methyl ester] |  | 1.075 ± 0.625 | None of the PL-462 and PL-515 compounds, delivered as aqueous solutions, are detected in the blood samples | equivalent to slightly superior delivery
